Experimental data: US20130005720A1, “PHARMACEUTICAL COMPOSITION FOR TREATING CANCER AND APPLICATIONS THEREOF” (Academia Sinica, priority 2011, published 2013)

Experiments:
[1] = system: d(TTAGGG)4 (HT24), G4 structure of human telomere; assay: CD and 1H NMR spectra: conversion of G4 structure conformation of HT24 in K+ or Na+ solution; format: binding; settings: for formation of G4 structures and conversion of G4 structures of human telomeres from nonparallel to parallel forms: K+ solution, summary statement; for CD spectral change before and after annealing: 5 μM HT24, 1 eq. compound
Procedure: (§1) All oligonucleotides were purchased from Bio Basic Inc. and used without further purification, including the single strand sequence derived from telomere of human chromosome, d(TTAGGG)4 (HT24) (SEQ ID NO: 1). Solutions of 10 mM Tris-HCl (pH 7.5) and its mixed solutions with KCl were mixed with each DNA sample and heated to 95° C. for 10 min first, cooled slowly to room temperature, and then stored for 48 h at 4° C. before use.
It is well-known that the linear parallel G4 structures, such as a propeller form, give a positive band at around 265 nm and a negative band at around 240 nm, while the anti-parallel G4 structures, such as a basket or chair form, show two positive bands at around 295 nm and 240 nm and a negative band at around 265 nm. In addition, the hybrid type G4 structures (3+1, including 3 parallel and 1 anti-parallel G4 structures) give a positive CD band at around 290 nm and a positive shoulder band at around 265 nm. The anti-parallel and hybrid type are both so-called “non-parallel” G4 structures. These spectral features are mainly attributed to the specific guanine stacking in various G4 structures.
(§2) J-815 spectropolarimeter (Jasco, Japan) with a 2 nm bandwidth at a 50 nm/min scan speed and a 0.2 nm step resolution was used to obtain CD spectra, and the following data was provided as an average of 10 scan results. The CD spectra were measured by monitoring the G4 structures under N2 over the range of 210 nm to 350 nm, and the thermal melting curves, as a function of temperature, were obtained by monitoring the CD intensity at 265 nm. Three independently scans were recorded for each sample. The melting temperature (Tm) was measured from the first differentiation of the melting curve.
5 μM HT24 and 1 eq. BMVC-8C3O (the equivalence ratio of HT24:BMVC-8C30 is 1:1) were used to detect whether BMVC-8C3O could convert the G4 structure conformation of HT24 from non-parallel to parallel.
The CD spectra of the HT24 and its complexes with 1 eq. BMVC-8C3O mixed in a 150 mM K^+ solution or in a 150 mM Na^+ solution were measured right after the mixing step under room temperature, as shown in FIGS. 2A and 2B (+BMVC-8C3O×1). Another set of spectra were obtained after these samples were annealed, i.e. heated at 95° C., and then gradually cooled down to room temperature (+BMVC-8C3O×1 anneal). […] These spectral features are consistent with the spectral changes of d[G3(T2AG3)3] (HT21) in K^+ or Na^+ solution upon the addition of 40% PEG (see Xue et al., 2007). That is to say, the peak at 265 nm (parallel G4 structure) increases and the peak at 290 nm (non-parallel G4 structure) decreases. This is, BMVC-8C3O and 40% PEG can converse the G4 structures from the non-parallel to the parallel.
BMVC-8C3O at 37° C., as a function of time.
In addition, 0.1 mM HT24 was mixed with 5 eq. BMVC-8C3O and dissolved in a H2O/D2O (90%/10%) solution containing 10 mM tris-HCl (pH 7.5) and 150 mM KCl to prepare samples for NMR (control sample was without BMVC-8C3O). Then the imino protons in the chemical shift range of 9-14 ppm were measured on a Bruker AVIII 800 MHz spectrometer using a pulsed-gradient spin-echo sequence with a selective refocusing pulse, and the chemical shift was measured relative to a D2O solution of DSS as an external reference. […] The NMR spectra show significant changes after adding 5 eq.
When 1 eq. […] However, when the concentration of BMVC-8C3O is increasing, the necessity of the annealing step decreases. For example, 5 eq. BMVC-8C3O induces spectra changes of the complex of HT24 and BMVC-8C3O in 150 mM K^+ solution at 37° C. (converting from non-parallel to parallel), and the annealing step is not necessary (see FIG. 2C).

[2] = system: d(TTAGGG)4 (HT24), G4 structure of human telomere; assay: CD thermal melting curve (265 nm) of HT24 G4 structure; format: binding
Procedure: as §1, §2
The BMVC-8C3O of the present invention can not only induce the formation of G4 structures, but also stabilize G4 structures. FIGS. 3A and 3B show the CD spectra of HT24 and its complex with 5 eq. BMVC-8C3O in 5 mM K^+ solution at 25° C. and 95° C., respectively. […] BMVC-8C3O in 5 mM or 150 mM K^+ solution at 265 nm, as a function graph of temperature. After adding 5 eq. BMVC-8C3O at 37° C.

[3] = system: d(TTAGGG)4 (HT24), single strand sequence derived from telomere of human chromosome; assay: CD spectra: induction of G4 structure formation of HT24 under a salt-deficient condition; format: binding; settings: 20 μM HT24, salt-deficient condition, room temperature, HT24:BMVC-8C3O 1:0 to 1:10
Procedure: as §1
First, circular dichroism spectroscopy (CD spectra) was used to examine whether BMVC-8C3O could induce the formation of G4 structure of human telomere, HT24, under a salt-deficient condition (Chang et al., 2007; Bugaut et al., 2008; Giraldo et al., 1994). […]
as §2, with “curve. […]” for “curve.”

CL1-0 lung cancer cells = assay: Long-term cell proliferation curve, CL1-0 cancer cells; format: cell-based; settings: long-term treated with 1.0 μM
Procedure: (§3) CL1-0 lung cancer cells and MRC-5 normal human lung fibroblasts were used in the following experiments, wherein CL1-0 cells were cultured in RPMI-1640 medium containing 10% FBS (fetal bovine serum) and 1% antibiotics (including penicillin and streptomycin), and MRC-5 cells were cultured in MEM medium containing 10% FBS and 1% antibiotics.
(§4) When these cells were subcultured, culture medium containing 1.0 μM BMVC-8C3O (1% DMSO for the control) was used to separate these cells into 5×10^5 cells/petri dish having a diameter of 6 cm. After 2 or 3 days, these cells were trypsinized and counted, and subcultured again with the same density and method. Cells were subcultured repeatedly until the total cell number was less than 5×10^5.
(§5) FIGS. 4A and 4B show the cell proliferation curves of CL1-0 cancer cells and MRC-5 normal cells that long-term treated with 1.0 μM BMVC-8C3O. From FIG. 4A, it is obvious that the proliferation of CL1-0 cancer cells is slowed from around day 10, and stopped at around day 20.

[4] = system: MRC-5 normal human lung fibroblasts; assay: Long-term cell proliferation curve, MRC-5 normal cells; format: cell-based; settings: long-term treated with 1.0 μM
Procedure: as §3, §4, §5

Compound	formation of G4 structures and conversion of G4 structures of human telomeres from nonparallel to parallel forms [1]	increase of the melting temperature of the G4 structures of human telomeres ([2]; summary statement, conditions not given at the place)	induction of G4 structure formation of HT24 (CD spectra) [3]	CD spectral change before and after annealing ([1]; 150 mM K+ solution)	CD spectral change before and after annealing ([1]; 150 mM Na+ solution)	structural change of HT24 (imino proton 1H NMR spectra) ([1]; 0.1 mM HT24, 5 eq. compound, 150 mM KCl, 2 h and 12 h after adding)	conversion of G4 structure conformation of HT24 from non-parallel to parallel (CD spectra) ([1]; 5 eq. compound, 150 mM K+ solution, 37° C., without annealing)	enhancement of melting temperature (Tm) of HT24 ([2]; 5 eq. compound, 37° C. 24 hours, 5 mM K+ solution)	melting temperature (Tm) of HT24 complex ([2]; 5 eq. compound, 37° C. 24 hours, 5 mM K+ solution, HT24 alone approximately 41° C.)	day at which proliferation of CL1-0 cancer cells is stopped (CL1-0 lung cancer cells)	day from which proliferation of CL1-0 cancer cells is slowed (CL1-0 lung cancer cells)	effect on proliferation of MRC-5 normal cells [4]
C[n+]1ccc(C=Cc2ccc3[nH]c4ccc(C=Cc5cc[n+](C)cc5)cc4c3c2)cc1.[I-].[I-] [BMVC, 3,6-bis(1-methyl-4-vinylpyridinium)carbazole diiodide, reference compound]	cannot be achieved	approximately 20 °C										
C[n+]1ccc(C=Cc2ccc3c(c2)c2cc(C=Cc4cc[n+](C)cc4)ccc2n3CCOCCOCCOCC[N+]2(C)CCCCC2)cc1.[I-].[I-].[I-] [BMVC-8C3O, 3,6-Bis(1-methyl-4-vinylpyridium iodide)-9-(1-(1-methyl-piperidinium iodide)-3,6,9-trioxaundecane) carbazole]	can induce the formation of G4 structures and convert the G4 structures of human telomeres from nonparallel to parallel forms		can induce G4 formation under a salt-deficient condition	significant spectral changes	only CD intensity changes are observed	can induce the structural change of HT24	can convert the conformation of G4 structures from non-parallel to parallel	about 50 °C	> 90 °C	~20 days	~10 days	does not significantly affect
